The test relates to 313798-341-R-J2-PDC spheroids, viability. In words: Anticancer human tumor 313798-341-R-J2-PDC patient-derived cervical squamous cell carcinoma cell line growth inhibition [PI3K]. As to conditions: spheroids with HUVEC and MSC; for viability, T/C: stronger effect = lower value. The method, boiled down: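 Multi-cell spheroids combine tumor cells with HUVEC and human MSCs, treated with targeted agents alone or with inavolisib, alpelisib, duvelisib or copanlisib. Concentrations fall in half-log steps from at or near clinical Cmax, or from 10 microM where Cmax is unknown; viability read-out.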

These results are taken from PubChem BioAssay AID1963982 (Molecular Pharmacology Branch, DTP, NCI, 2024).
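Also: spheroids exposed to compounds for seven days.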
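For viability, T/C in this document: 100% = DMSO vehicle control viability.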

As to `Cn1ncc(Cl)c1-c1cc(C(=O)NC(CN)Cc2cccc(F)c2)sc1Cl` (stereo unspecified), the viability, T/C (compound 0.0316 µM) was 105% [middle of 4 runs]; the viability, T/C (compound 0.1 µM) is 97.5% [middle of 4 runs]; the viability, T/C (compound 0.316 µM) was 79.1% [middle of 4 runs]; the viability, T/C (compound 1 µM) is 49.9% [middle of 4 runs]; the viability, T/C (compound 3.16 µM) was 34.7% [middle of 4 runs]; the viability, T/C (compound 10 µM) is 34.5% [middle of 4 runs]. Also, for the setting “curve of compound”, the concentration for half-maximal inhibition (IC50) was 996 nM [middle of 4 runs].

`CNC(=O)c1ccc(N2C(=S)N(c3ccc(C#N)c(C(F)(F)F)c3)C(=O)C2(C)C)cc1F` + COc1c(OCCCN2CCOCC2)ccc2c3n(c(=NC(=O)c4cnc(N)nc4)nc12)CCN3: the concentration for half-maximal inhibition (IC50) (curve of first compound, second compound 0.00316 µM) was greater than 10 µM; the half-maximal inhibitory concentration (IC50) (curve of first compound, second compound 0.01 µM) was greater than 10 µM; the half-inhibitory concentration (IC50) (curve of first compound, second compound 0.0316 µM) is greater than 10 µM; the half-inhibitory concentration (IC50) (curve of first compound, second compound 0.1 µM) is less than 0.0316 µM; the 50% inhibitory concentration (IC50) (curve of first compound, second compound 0.316 µM) is less than 0.0316 µM; the IC50 (curve of first compound, second compound 1 µM) was less than 0.0316 µM. In addition, the viability, T/C was 98.3% (second compound 0.00316 µM, first compound 0.0316 µM); 117% (second compound 0.00316 µM, first compound 0.1 µM); 102% (second compound 0.00316 µM, first compound 0.316 µM); 112% (second compound 0.00316 µM, first compound 1 µM); 99.8% (second compound 0.00316 µM, first compound 3.16 µM); 87.1% (second compound 0.00316 µM, first compound 10 µM). For the same molecule, the viability, T/C was 102% (second compound 0.01 µM, first compound 0.0316 µM); 100% (second compound 0.01 µM, first compound 0.1 µM); 97.3% (second compound 0.01 µM, first compound 0.316 µM); 115% (second compound 0.01 µM, first compound 1 µM); 94.7% (second compound 0.01 µM, first compound 3.16 µM); 96.7% (second compound 0.01 µM, first compound 10 µM). Moreover, the viability, T/C is 73.3% (second compound 0.0316 µM, first compound 0.0316 µM); 79.2% (second compound 0.0316 µM, first compound 0.1 µM); 73.2% (second compound 0.0316 µM, first compound 0.316 µM); 71.3% (second compound 0.0316 µM, first compound 1 µM); 74.1% (second compound 0.0316 µM, first compound 3.16 µM); 62.8% (second compound 0.0316 µM, first compound 10 µM). Besides, the viability, T/C is 37.3% (second compound 0.1 µM, first compound 0.0316 µM); 42.9% (second compound 0.1 µM, first compound 0.1 µM); 39.7% (second compound 0.1 µM, first compound 0.316 µM); 40.8% (second compound 0.1 µM, first compound 1 µM); 34.9% (second compound 0.1 µM, first compound 3.16 µM); 31.8% (second compound 0.1 µM, first compound 10 µM). In addition, the viability, T/C (second compound 0.316 µM, first compound 0.0316 µM) was 15.5%; the viability, T/C (second compound 0.316 µM, first compound 0.1 µM) is 16.6%; the viability, T/C (second compound 0.316 µM, first compound 0.316 µM) is 13.9%; the viability, T/C (second compound 0.316 µM, first compound 1 µM) was 13.4%; the viability, T/C (second compound 0.316 µM, first compound 3.16 µM) is 14.8%; the viability, T/C (second compound 0.316 µM, first compound 10 µM) was 12.3%. Besides, the viability, T/C (second compound 1 µM, first compound 0.0316 µM) was 11.8%; the viability, T/C (second compound 1 µM, first compound 0.1 µM) is 9.64%; the viability, T/C (second compound 1 µM, first compound 0.316 µM) is 11.3%; the viability, T/C (second compound 1 µM, first compound 1 µM) is 9.53%; the viability, T/C (second compound 1 µM, first compound 3.16 µM) was 9.76%; the viability, T/C (second compound 1 µM, first compound 10 µM) is 8.76%.

Take `CC1(C)CCC(CN2CCN(c3ccc(C(=O)NS(=O)(=O)c4ccc(NCC5CCOCC5)c([N+](=O)[O-])c4)c(Oc4cnc5[nH]ccc5c4)c3)CC2)=C(c2ccc(Cl)cc2)C1`: the viability, T/C (compound 0.0316 µM) is 101% [middle of 4 runs]; the viability, T/C (compound 0.1 µM) is 97.8% [middle of 4 runs]; the viability, T/C (compound 0.316 µM) is 101% [middle of 4 runs]; the viability, T/C (compound 1 µM) was 94.4% [middle of 4 runs]; the viability, T/C (compound 3.16 µM) is 78.9% [middle of 4 runs].

Take `CC(C)NCC(C(=O)N1CCN(c2ncnc3c2C(C)CC3O)CC1)c1ccc(Cl)cc1` (stereo unspecified): the viability, T/C by setting is: (compound 0.0316 µM) 97.6% [middle of 4 runs]; (compound 0.1 µM) 96.4% [middle of 4 runs]; (compound 0.316 µM) 92.8% [middle of 4 runs]; (compound 1 µM) 65.8% [middle of 4 runs]; (compound 3.16 µM) 41.6% [middle of 4 runs]; (compound 10 µM) 31.5% [middle of 4 runs]. Besides, for the setting “curve of compound”, the IC50 was 2 µM [middle of 4 runs].

As a reminder, the viability, T/C is the result in the treated group divided by that in the control group, in per cent. By IC50 is commonly meant the concentration that inhibits the measured activity by half.
